Legend:
[1] = cited from earlier work
[2] = Deodorant efficacy test: odor intensity of incubated underarm sweat, expert panel; set-up: species or system human; settings: 24 hours at 37° C, vs control sweat
Experimental: Protocol of the Deodorant Efficacy Test
Collections of underarm sweat were taken in a sauna from 6 volunteers; the samples of individual sweat, were stored in ice for a few hours, and were at this point virtually odorless. They were then mixed together and divided into 1 ml aliquots. The active agents were added to these aliquots, which were then incubated in an oven at 37° C. After incubation for 24 hours, a panel of experts evaluated the intensity of the odor in comparison with a control sample: 1 ml of sweat incubated without agent.
The results were expressed as a percentage of variation of the intensity of the odor in comparison with the control sweat sample (mean of the percentages of variation at T24h).

Oc1cc(Cl)ccc1Oc1ccc(Cl)cc1Cl [(B), 2,4,4′-trichloro-2′-hydroxydiphenyl ether]
Solubility in water [1]: insoluble
% of Reduction in the Intensity of the Odor ([2]; 0.4 mg AM/ml of sweat (total)): −49%

aluminum chlorohydrate [ACH]
% of Reduction in the Intensity of the Odor ([2]; 0.1 mg AM/ml of sweat): −37%
% of Reduction in the Intensity of the Odor ([2]; 0.2 mg AM/ml of sweat (total)): −47%

zinc pidolate [(A)]
% of Reduction in the Intensity of the Odor ([2]; 0.1 mg AM/ml of sweat): −47%
% of Reduction in the Intensity of the Odor ([2]; 0.2 mg AM/ml of sweat (total)): −47%

zinc ricinoleate [(C)]
% of Reduction in the Intensity of the Odor ([2]; 0.3 mg AM/ml of sweat): −4%

From US20050163737A1, “Deodorant cosmetic composition comprising a combination of zinc pidolate and an antiperspirant aluminum salt” (priority 2003, published 2005)
